In patent US20050004092A1, “Penem derivatives and antimicrobial agent containing the same” (DAIICHI SUNTORY PHARMA CO., LTD., priority 1995, published 2005):
Values after ≈ are worked out from the molar mass of the structure shown.

What was measured:
Experiment in all cases: antibacterial activity (MIC), standard in vitro dilution test
[1] = test system: MRSA 31 high-resist. (IPM resist.); type: cell-based, Staphylococcus aureus; conditions: test bacterium strain 10^5 cfu/ml; for MIC: Staphylococcus aureus, MRSA, read-out: MIC, MRSA 31 high-resist. (IPM resist.)
From the text: (§1) With respect to certain compounds (I) of the present invention, their general antibacterial activities and their antibacterial activities (MIC) against various methicillin-resistant strains of Staphylococcus aureus (methicillin-resistant Staphylococcus aureus: MRSA) were investigated. The results will be shown next.
(§2) Of the investigations, the general antibacterial activities were investigated by a standard in vitro dilution test.
(§3) As test bacteria, Staphylococcus aureus 209P JC-1, Escherichia coli NIHJ JC-2 and MRSAs were used.

[2] = test system: MRSA 33 high-resist. (IPM resist.); type: cell-based, Staphylococcus aureus; conditions: test bacterium strain 10^5 cfu/ml; for MIC: Staphylococcus aureus, MRSA, read-out: MIC, MRSA 33 high-resist. (IPM resist.)
From the text: as §1, §2, §3

[3] = test system: Staphylococcus aureus 209P JC-1 strain; type: cell-based; conditions: test bacterium strain 10^5 cfu/ml; for MIC: Staphylococcus aureus, 209P, read-out: MIC, Staphylococcus aureus 209P JC-1 strain
From the text: as §1, §2, §3

[4] = test system: Escherichia coli NIHJ JC-2 strain; type: cell-based; conditions: for MIC: Escherichia coli, NIHJJC2, test bacterium strain 10^5 cfu/ml, read-out: MIC, Escherichia coli NIHJ JC-2 strain; for MIC, Escherichia coli NIHJ JC-2 strain: test bacterium strain 10^5 cfu/ml
From the text: as §1, §2, §3

## CC[C@H](O)[C@@H]1C(=O)N2C(C(=O)O)=C(S[C@H]3CCN(CC4CC4)C3)S[C@H]12 [Ex. 230]
[1]
  MIC: 6.25 µg/mL (≈ 16.3 µM)
[2]
  MIC: 6.25 µg/mL (≈ 16.3 µM)
[3]
  MIC: 0.2 µg/mL (≈ 0.52 µM)
[4]
  MIC: 0.78 µg/mL (≈ 2.03 µM)

## CC[C@H](O)[C@]1(C(=O)O)C(=O)N2C=C(S[C@H]3CCN(Cc4ccccc4)C3)S[C@@H]21 [Ex. 44, (5R,6R)-2-((S)-1-benzylpyrrolidin-3-yl)thio-6-((S)-1-hydroxypropyl)penem-6-carboxylic acid]
[1]
  MIC: 3.13 µg/mL (≈ 7.44 µM)
[2]
  MIC: 3.13 µg/mL (≈ 7.44 µM)
[3]
  MIC: 0.1 µg/mL (≈ 0.238 µM)
[4]
  MIC: 3.13 µg/mL (≈ 7.44 µM)

## CC[C@H](O)[C@@H]1C(=O)N2C(C(=O)O)=C(SCc3nc4ccccc4[nH]3)SC12 (stereo partly drawn) [Ex. 205]
[1]
  MIC: 3.13 µg/mL (≈ 8 µM)
[2]
  MIC: 3.13 µg/mL (≈ 8 µM)
[3]
  MIC: 0.1 µg/mL (≈ 0.255 µM)
[4]
  MIC: 3.13 µg/mL (≈ 8 µM)

## CC[C@H](O)[C@@H]1C(=O)N2C(C(=O)O)=C(S[C@H]3CCN(CC(=O)c4ccccc4)C3)S[C@H]12 [Ex. 111, (5R,6R)-6-((S)-1-hydroxypropyl)-2-((S)-1-phenacylpyrrolidin-3-yl)thiopenem-3-carboxylic acid]
[1]
  MIC: 3.13 µg/mL (≈ 6.98 µM)
[2]
  MIC: 3.13 µg/mL (≈ 6.98 µM)
[3]
  MIC: 0.1 µg/mL (≈ 0.223 µM)
[4]
  MIC: 0.2 µg/mL (≈ 0.446 µM)

## CC[C@H](O)[C@@H]1C(=O)N2C(C(=O)O)=C(S[C@H]3CCN(c4nccs4)C3)S[C@H]12 [Ex. 229]
[1]
  MIC: 3.13 µg/mL (≈ 7.57 µM)
[2]
  MIC: 3.13 µg/mL (≈ 7.57 µM)
[3]
  MIC: 0.1 µg/mL (≈ 0.242 µM)
[4]
  MIC: 12.5 µg/mL (≈ 30.2 µM)

## CC[C@H](O)[C@@H]1C(=O)N2C(C(=O)O)=C(SC3CN(C(C)=N)C3)S[C@H]12 [Ex. 255]
[1]
  MIC: 3.13 µg/mL (≈ 8.76 µM)
[2]
  MIC: 3.13 µg/mL (≈ 8.76 µM)
[3]
  MIC: 0.1 µg/mL (≈ 0.28 µM)
[4]
  MIC: 0.78 µg/mL (≈ 2.18 µM)

## CC[C@H](O)[C@@H]1C(=O)N2C(C(=O)O)=C(SCc3ccc(Cl)c(Cl)c3)S[C@H]12 [Ex. 236]
[1]
  MIC: 1.56 µg/mL (≈ 3.71 µM)
[2]
  MIC: 1.56 µg/mL (≈ 3.71 µM)
[3]
  MIC: 0.1 µg/mL (≈ 0.238 µM)
[4]
  MIC: 50 µg/mL (≈ 119 µM)

## CC[C@H](O)[C@@H]1C(=O)N2C(C(=O)O)=C(SCCN(C)CC(=O)c3ccccc3)S[C@H]12 [Ex. 142, (5R,6R)-6-((S)-1-hydroxypropyl)-2-(2-(N-methyl-N-phenacylamino)ethyl)thiopenem-3-carboxylic acid]
[1]
  MIC: 6.25 µg/mL (≈ 14.3 µM)
[2]
  MIC: 6.25 µg/mL (≈ 14.3 µM)
[3]
  MIC: 0.1 µg/mL (≈ 0.229 µM)
[4]
  MIC: 0.78 µg/mL (≈ 1.79 µM)

## CC[C@H](O)[C@@H]1C(=O)N2C(C(=O)O)=C(SC3CCc4cccnc43)S[C@H]12 (stereo partly drawn) [Ex. 232]
[1]
  MIC, MRSA 31 high-resist. (IPM resist.): 3.13 µg/mL (≈ 8.27 µM)
[2]
  MIC, MRSA 33 high-resist. (IPM resist.): 3.13 µg/mL (≈ 8.27 µM)
[3]
  MIC, Staphylococcus aureus 209P JC-1 strain: 0.05 µg/mL (≈ 0.132 µM)
[4]
  MIC, Escherichia coli NIHJ JC-2 strain: 12.5 µg/mL (≈ 33 µM)

## CC[C@H](O)[C@@H]1C(=O)N2C(C(=O)O)=C(S[C@H]3CCN(CCCC(=O)c4ccccc4)C3)S[C@H]12 [Ex. 215]
[1]
  MIC: 6.25 µg/mL (≈ 13.1 µM)
[2]
  MIC: 6.25 µg/mL (≈ 13.1 µM)
[3]
  MIC: 0.1 µg/mL (≈ 0.21 µM)
[4]
  MIC: 3.13 µg/mL (≈ 6.57 µM)

## CC[C@H](O)[C@@H]1C(=O)N2C(C(=O)O)=C(SCc3ccccn3)S[C@H]12 [Ex. 129, (5R,6R)-6-((S)-1-hydroxypropyl)-2-(2-pyridylmethyl)thiopenem-3-carboxylic acid]
[1]
  MIC: 6.25 µg/mL (≈ 17.7 µM)
[2]
  MIC: 6.25 µg/mL (≈ 17.7 µM)
[3]
  MIC: 0.2 µg/mL (≈ 0.567 µM)
[4]
  MIC: 6.25 µg/mL (≈ 17.7 µM)

## CC[C@H](O)[C@@H]1C(=O)N2C(C(=O)O)=C(SCCn3cccc3)S[C@H]12 [Ex. 147, (5R,6R)-6-((S)-1-hydroxypropyl)-2-(2-(1-pyrrolyl)ethyl)thiopenem-3-carboxylic acid]
[1]
  MIC: 3.13 µg/mL (≈ 8.83 µM)
[2]
  MIC: 3.13 µg/mL (≈ 8.83 µM)
[3]
  MIC: 0.2 µg/mL (≈ 0.564 µM)
[4]
  MIC: 6.25 µg/mL (≈ 17.6 µM)

## CC[C@H](O)[C@@H]1C(=O)N2C(C(=O)O)=C(SC3CCCN(Cc4ccccc4)C3)S[C@H]12 (stereo partly drawn) [Ex. 125*^4]
[1]
  MIC: 6.25 µg/mL (≈ 14.4 µM)
[2]
  MIC: 6.25 µg/mL (≈ 14.4 µM)
[3]
  MIC: 0.2 µg/mL (≈ 0.46 µM)
[4]
  MIC: 12.5 µg/mL (≈ 28.8 µM)

## CC[C@H](O)[C@@H]1C(=O)N2C(C(=O)O)=C(SC3CCN(CC(=O)c4ccccc4C)C3)S[C@H]12 (stereo partly drawn) [Ex. 226]
[1]
  MIC: 6.25 µg/mL (≈ 13.5 µM)
[2]
  MIC: 6.25 µg/mL (≈ 13.5 µM)
[3]
  MIC: 0.2 µg/mL (≈ 0.432 µM)
[4]
  MIC: 0.39 µg/mL (≈ 0.843 µM)

## CC[C@H](O)[C@@H]1C(=O)N2C(C(=O)O)=C(S[C@H]3CCN(c4ccccn4)C3)S[C@H]12 [Ex. 204]
[1]
  MIC: 3.13 µg/mL (≈ 7.68 µM)
[2]
  MIC: 3.13 µg/mL (≈ 7.68 µM)
[3]
  MIC: 0.1 µg/mL (≈ 0.245 µM)
[4]
  MIC: 6.25 µg/mL (≈ 15.3 µM)

## CC[C@H](O)[C@@H]1C(=O)N2C(C(=O)O)=C(SCc3ccc(C#N)cc3)S[C@H]12 [Ex. 239]
[1]
  MIC: 0.78 µg/mL (≈ 2.07 µM)
[2]
  MIC: 1.56 µg/mL (≈ 4.14 µM)
[3]
  MIC: 0.1 µg/mL (≈ 0.266 µM)
[4]
  MIC: 12.5 µg/mL (≈ 33.2 µM)

## CC[C@H](O)[C@@H]1C(=O)N2C(C(=O)O)=C(Sc3ccccc3)S[C@H]12 [Ex. 151, (5R,6R)-6-((S)-1-hydroxypropyl)-2-phenylthiopenem-3-carboxylic acid]
[1]
  MIC: 6.25 µg/mL (≈ 18.5 µM)
[2]
  MIC: 6.25 µg/mL (≈ 18.5 µM)
[3]
  MIC: 0.1 µg/mL (≈ 0.296 µM)
[4]
  MIC: 25 µg/mL (≈ 74.1 µM)

## CC[C@H](O)[C@@H]1C(=O)N2C(C(=O)O)=C(SC3CCN(C(=N)NC(=O)c4ccccc4)C3)S[C@H]12 (stereo partly drawn) [Ex. 218]
[1]
  MIC: 6.25 µg/mL (≈ 13.1 µM)
[2]
  MIC: 6.25 µg/mL (≈ 13.1 µM)
[3]
  MIC: 0.2 µg/mL (≈ 0.42 µM)
[4]
  MIC: 25 µg/mL (≈ 52.5 µM)

## C=CCN1CCC(SC2=C(C(=O)O)N3C(=O)[C@@H]([C@@H](O)CC)[C@H]3S2)C1 (stereo partly drawn) [Ex. 18, (5R,6R)-2-(1-allyl-3-pyrrolidine)-thio-6-((S)-1-hydroxypropyl)penem-3-carboxylic acid]
[1]
  MIC, MRSA 31 high-resist. (IPM resist.): 3.13 µg/mL (≈ 8.45 µM)
[2]
  MIC, MRSA 33 high-resist. (IPM resist.): 3.13 µg/mL (≈ 8.45 µM)
[3]
  MIC, Staphylococcus aureus 209P JC-1 strain: ≦0.025 μg/ml
[4]
  MIC, Escherichia coli NIHJ JC-2 strain: 0.39 µg/mL (≈ 1.05 µM)

## CC[C@H](O)[C@@H]1C(=O)N2C(C(=O)O)=C(S[C@H]3CCN(C(C)=N)C3)S[C@H]12 [Ex. 103, (5R,6R)-2-((S)-1-(1-iminoethyl)-pyrrolidin-3-yl)thio-6-((S)-1-hydroxypropyl)-penem-3-carboxylic acid]
[1]
  MIC: 3.13 µg/mL (≈ 8.43 µM)
[2]
  MIC: 3.13 µg/mL (≈ 8.43 µM)
[3]
  MIC: 0.1 µg/mL (≈ 0.269 µM)
[4]
  MIC: 0.39 µg/mL (≈ 1.05 µM)

## CC[C@H](O)[C@@H]1C(=O)N2C(C(=O)O)=C(SCCC(=O)Nc3ccccc3)S[C@H]12 [Ex. 134, (5R,6R)-6-((S)-1-hydroxypropyl)-2-(2-phenylaminocarbonylethyl)thiopenem-3-carboxylic acid]
[1]
  MIC: 6.25 µg/mL (≈ 15.3 µM)
[2]
  MIC: 6.25 µg/mL (≈ 15.3 µM)
[3]
  MIC: 0.39 µg/mL (≈ 0.955 µM)
[4]
  MIC: 12.5 µg/mL (≈ 30.6 µM)

## CC[C@H](O)[C@@H]1C(=O)N2C(C(=O)O)=C(SC3CCc4cccnc43)S[C@H]12 (stereo partly drawn) [Ex. 231]
[1]
  MIC, MRSA 31 high-resist. (IPM resist.): 1.56 µg/mL (≈ 4.12 µM)
[2]
  MIC, MRSA 33 high-resist. (IPM resist.): 1.56 µg/mL (≈ 4.12 µM)
[3]
  MIC: 0.1 µg/mL (≈ 0.264 µM)
[4]
  MIC, Escherichia coli NIHJ JC-2 strain: 3.13 µg/mL (≈ 8.27 µM)

## CC[C@H](O)[C@@H]1C(=O)N2C(C(=O)O)=C(SCCNC(C)=N)S[C@H]12 [Ex. 131, (5R,6R)-2-(2-(1-iminoethylamino)-ethyl)thio-6-((S)-1-hydroxypropyl)penem-3-carboxylic acid]
[1]
  MIC: 6.25 µg/mL (≈ 18.1 µM)
[2]
  MIC: 6.25 µg/mL (≈ 18.1 µM)
[3]
  MIC: 0.1 µg/mL (≈ 0.289 µM)
[4]
  MIC: 0.78 µg/mL (≈ 2.26 µM)

## CC[C@H](O)[C@@H]1C(=O)N2C(C(=O)O)=C(SC3CN(C=N)C3)S[C@H]12 [Ex. 254]
[1]
  MIC: 6.25 µg/mL (≈ 18.2 µM)
[2]
  MIC: 6.25 µg/mL (≈ 18.2 µM)
[3]
  MIC: 0.1 µg/mL (≈ 0.291 µM)
[4]
  MIC: 0.78 µg/mL (≈ 2.27 µM)

## CC[C@H](O)[C@@H]1C(=O)N2C(C(=O)O)=C(SC3CCN(C4CCCC4)C3)S[C@H]12 (stereo partly drawn) [Ex. 227]
[1]
  MIC: 6.25 µg/mL (≈ 15.7 µM)
[2]
  MIC: 6.25 µg/mL (≈ 15.7 µM)
[3]
  MIC: 0.1 µg/mL (≈ 0.251 µM)
[4]
  MIC: 0.78 µg/mL (≈ 1.96 µM)

## CC[C@H](O)[C@@H]1C(=O)N2C(C(=O)O)=C(SC3Cc4ccccc4C3)S[C@H]12 [Ex. 225]
[1]
  MIC: 1.56 µg/mL (≈ 4.13 µM)
[2]
  MIC: 1.56 µg/mL (≈ 4.13 µM)
[3]
  MIC: 0.05 µg/mL (≈ 0.132 µM)
[4]
  MIC: 12.5 µg/mL (≈ 33.1 µM)

## CC[C@H](O)[C@@H]1C(=O)N2C(C(=O)O)=C(Sc3nc(-c4ccccc4)cs3)S[C@H]12 [Ex. 152, (5R,6R)-6-((S)-1-hydroxypropyl)-2-(4-phenylthiazol-2-yl)thiopenem-3-carboxylic acid]
[1]
  MIC: 3.13 µg/mL (≈ 7.44 µM)
[2]
  MIC: 3.13 µg/mL (≈ 7.44 µM)
[3]
  MIC: 0.05 µg/mL (≈ 0.119 µM)
[4]
  MIC: 50 µg/mL (≈ 119 µM)
